Source: paper PMC10547880, “Synthesis and biological evaluation of novel 1,2,3-triazole hybrids of cabotegravir: identification of potent antitumor activity against lung cancer” (Frontiers in Pharmacology, 2023)

Assays:
Assay type in all cases: cell-based, Human
H460 cells = assay: CCK8 cell viability and IC50 measurement, H460; conditions: for Cell viability: H460, 25 μM; for IC50: H460, 72 h, CCK8; for cell proliferation inhibition rate: H460, 72-h treatment
Procedure: (§1) Human lung cancer cell line H460 and H1299, human liver normal cell line LO2 were bought from ATCC. DMEM or RPMI 1640 was used as the cell culture medium with 10% FBS and 1% penicillin/streptomycin. Cells were maintained in an incubator with 37°C humidified atmosphere and 5% CO2.
(§2) Cell viability and IC50 values were determined using the CCK8 assay kit. Cells were seeded at a density of 5 × 10^3 cells per well in a 96-well plate. After overnight adhesion, 25 μM of compounds or vehicle control DMSO which all dissolved in the culture medium were added to cells and cultured for 48 h or 72 h. CCK8 reagent, dissolved in the medium, was then added to cells and incubated for 1 h. The absorbance at 450 nm was measured using a microplate spectrophotometer (Thermo). Cell viability was calculated, with the untreated group taken as 100%. For IC50 values determination, different concentrations (0, 0.4 μM, 2 μM, 10 μM, 20 μM, 50 μM) of compounds were added to cells for 72 h. Subsequent CCK8 measurement allowed the calculation of inhibition percentage based on cell viability. The IC50 values were computed by the prism statistical software. The CCK-8 assay was conducted three times and the repetitions in each time were at least three. All the values were expressed as Mean ± SD, p < 0.05 was considered statistically significant.
(§3) In order to assess the potential cytotoxicity of the synthesized compounds, we selected two types of human non-small-cell lung cancer cell line, H460 and H1299. Cell viability and cytotoxicity were evaluated using the CCK8 assay ([Xu et al., 2018]). The cells were treated with 25 μM of compounds 5a-5s and 6a-6i for 48h and 72 h. […] In contrast, no compounds managed to reduce H1299 cell viability to less than 50%, yet compounds 5i, 5m, 6h and 6i achieved cell viability rates below 70%. […] It is worth noting that minimal effects on the cell viability of the normal cell line LO2 were observed when exposed to these compounds. Further, we determined the half-maximal inhibitory concentration (IC50) of selected compounds against H460 cells, the results of which were summarized in Table 3.

H1299 cells = assay: CCK8 cell viability, H1299; conditions: H1299, 25 μM
Procedure: as §1, §2, §3

LO2 cells = assay: CCK8 cell viability, normal cell line LO2; conditions: LO2 normal liver cells, 25 μM, 72 h
Procedure: as §1, §2, §3

| IC50 (H460 cells) [µM] | SMILES | Cell viability (H460 cells; 48 h) [%] | Cell viability (H460 cells; 72 h) [%] | Cell viability (H1299 cells; 48 h) [%] | Cell viability (H1299 cells; 72 h) [%] | Cell viability (LO2 cells) [%] | cell proliferation inhibition rate (H460 cells) |
| --- | --- | --- | --- | --- | --- | --- | --- |
| 12.7 ± 4.85 | CCc1ccccc1-n1cc(-c2cccc(NC(=O)c3cn4c(c(OC)c3=O)C(=O)N3C(C)COC3C4)c2)nn1 (stereo not shown) [Compound 5d] | 92.17 |  | 117.48 | 99.81 | 127.81 | exceed 50% |
| > 100 | COc1c2n(cc(C(=O)Nc3cccc(-c4cn(-c5cc(C(F)(F)F)cc(C(F)(F)F)c5)nn4)c3)c1=O)CC1OCC(C)N1C2=O (stereo not shown) [Compound 5e] | 101.34 | 101.97 | 103.75 | 99.34 | 129.12 |  |
| > 100 | COc1c2n(cc(C(=O)Nc3cccc(-c4cn(-c5cccc(C(F)(F)F)c5)nn4)c3)c1=O)CC1OCC(C)N1C2=O (stereo not shown) [Compound 5h] | 97.75 | 75.09 | 114.98 | 93.73 | 101.34 |  |
| 36 ± 2.73 | COc1c2n(cc(C(=O)Nc3cccc(-c4cn(-c5cc(C(F)(F)F)ccc5C(F)(F)F)nn4)c3)c1=O)CC1OCC(C)N1C2=O (stereo not shown) [Compound 5k] | 94.55 | 52.15 | 113.47 | 91.70 | 124.51 |  |
| > 50 | COc1c2n(cc(C(=O)Nc3cccc(-c4cn(-c5ccccc5Br)nn4)c3)c1=O)CC1OCC(C)N1C2=O (stereo not shown) [Compound 5m] | 96.50 | 94.59 | 112.42 |  | 111.3 |  |

Further lines, the compound ahead of its results:

| SMILES | IC50 (H460 cells) [µM] | Cell viability (H460 cells; 48 h) [%] | Cell viability (H460 cells; 72 h) [%] | Cell viability (H1299 cells; 48 h) [%] | Cell viability (H1299 cells; 72 h) [%] | Cell viability (LO2 cells) [%] | cell proliferation inhibition rate (H460 cells) |
| --- | --- | --- | --- | --- | --- | --- | --- |
| COc1c2n(cc(C(=O)Nc3cccc(-c4cn(-c5ccccc5C(F)(F)F)nn4)c3)c1=O)CC1OCC(C)N1C2=O (stereo not shown) [Compound 5a] | 31.8 ± 0.47 | 87.78 | 65.75 | 121.35 | 102.55 | 105.28 |  |
| COc1c2n(cc(C(=O)Nc3cccc(-c4cn(-c5ccccc5C)nn4)c3)c1=O)CC1OCC(C)N1C2=O (stereo not shown) [Compound 5c] | 9.65 ± 0.04 |  |  | 94.81 | 83.51 | 73.79 | exceed 50% |
| COc1c2n(cc(C(=O)Nc3cccc(-c4cn(-c5cccc(F)c5)nn4)c3)c1=O)CC1OCC(C)N1C2=O (stereo not shown) [Compound 5f] |  | 93.31 | 100.16 | 114.19 | 100.41 | 130.35 |  |
| COc1ccccc1-n1cc(-c2cccc(NC(=O)c3cn4c(c(OC)c3=O)C(=O)N3C(C)COC3C4)c2)nn1 (stereo not shown) [Compound 5g] |  | 82.94 | 99.43 | 117.81 | 103.45 | 128.56 |  |
| COc1c2n(cc(C(=O)Nc3cccc(-c4cn(-c5ccc(C(F)(F)F)cc5)nn4)c3)c1=O)CC1OCC(C)N1C2=O (stereo not shown) [Compound 5j] |  | 100.66 | 111.72 | 96.98 | 92.49 | 108.63 |  |
| COc1c2n(cc(C(=O)Nc3cccc(-c4cn(-c5c(C)cc(C)cc5C)nn4)c3)c1=O)CC1OCC(C)N1C2=O (stereo not shown) [Compound 5l] |  | 84.74 | 98.25 | 118.92 | 91.44 | 125.46 |  |
| COc1c2n(cc(C(=O)Nc3cccc(-c4cn(-c5ccc(F)cc5)nn4)c3)c1=O)CC1OCC(C)N1C2=O (stereo not shown) [Compound 5n] |  | 99.22 | 105.04 | 115.05 | 91.74 | 127.86 |  |
| COc1c2n(cc(C(=O)Nc3cccc(-c4cn(-c5ccccc5I)nn4)c3)c1=O)CC1OCC(C)N1C2=O (stereo not shown) [Compound 5o] |  | 101.09 | 104.29 | 120.83 | 86.67 | 100.11 |  |
